Measurements taken from patent US8829034B2, “Compounds which modulate the CB2 receptor” (Boehringer Ingerlheim International GmbH, priority 2006, dated 2014).
Like-named read-outs stand apart in the source and are kept apart here.

Target: T1, human CB2R (Homo sapiens, UniProt P34972)
T1 construct: host or cells: CHO cells
Assay: CB2R mediated modulation of cAMP synthesis
Format: cell-based
Conditions: for agonistic activity: found through the use of the above described assays
How it was run: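 CHO cells expressing human CB2R were treated with compound for 30 min at 37 °C in buffer containing 1 mM IBMX, 0.25% BSA and 10 uM forskolin. cAMP was measured after lysis. EC50 was taken as 50% inhibition of forskolin-stimulated cAMP, with 100% defined by 1 uM CP55940, using a four-parameter logistic fit.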

T1 sequence (P34972 whole entry): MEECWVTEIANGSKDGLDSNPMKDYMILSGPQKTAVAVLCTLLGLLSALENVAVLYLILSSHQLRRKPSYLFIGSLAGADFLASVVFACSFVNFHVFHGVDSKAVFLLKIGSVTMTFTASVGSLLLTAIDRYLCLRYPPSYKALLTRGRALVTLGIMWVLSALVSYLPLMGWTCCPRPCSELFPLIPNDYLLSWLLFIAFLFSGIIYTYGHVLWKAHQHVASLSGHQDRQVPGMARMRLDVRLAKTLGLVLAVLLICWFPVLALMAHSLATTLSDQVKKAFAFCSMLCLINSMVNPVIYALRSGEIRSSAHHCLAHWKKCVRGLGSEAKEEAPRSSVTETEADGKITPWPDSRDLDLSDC

| SMILES | EC50 | agonistic activity | EC50 (CHO cells expressing human CB2R, inhibition of forskolin-stimulated cAMP synthesis, compounds having agonist activity, read-out: CB2 EC50) |
| --- | --- | --- | --- |
| CCCS(=O)(=O)C(C)(C)C(=O)Nc1nc(C)c(C(C)(C)C)s1 [N-(5-tert-Butyl-4-methyl-thiazol-2-yl)-2-methyl-2-(propane-1-sulfonyl)-propionamide] | 0.0072 µM | agonistic activity |  |
| CC(C)S(=O)(=O)C(C)(C)C(=O)Nc1ccc2ccccc2n1 [2-Methyl-2-(propane-2-sulfonyl)-N-quinolin-2-yl-propionamide] |  | agonistic activity |  |
| CCC(C)S(=O)(=O)C(C)(C)C(=O)Nc1nc(C(C)(C)C)cs1 (centres unmarked) [2-(Butane-2-sulfonyl)-N-(4-tert-butyl-thiazol-2-yl)-2-methyl-propionamide] |  | agonistic activity | 0.0144 µM |
| CC(C)(C(=O)Nc1nc(-c2ccc(Cl)cc2)cs1)S(=O)(=O)C1CCCC1 [N-[4-(4-Chloro-phenyl)-thiazol-2-yl]-2-cyclopentanesulfonyl-2-methyl-propionamide] | 0.0015 µM | agonistic activity |  |
| CC(C)(C(=O)Nc1nnc(-c2ccccc2)[nH]1)S(=O)(=O)CC1CCOCC1 [2-Methyl-N-(5-phenyl-4H-1,2,4-triazol-3-yl)-2-(tetrahydro-pyran-4-ylmethanesulfonyl)-propionamide] | 0.0017 µM | agonistic activity |  |
| CC(C)(C)c1csc(NC(=O)C(C)(C)S(C)(=O)=O)n1 [N-(4-tert-Butyl-thiazol-2-yl)-2-methanesulfonyl-2-methyl-propionamide] |  | agonistic activity |  |
| Cn1nc(C(C)(C)C)cc1NC(=O)C(C)(C)S(=O)(=O)CC1CCCCO1 (centres unmarked) [N-(5-tert-Butyl-2-methyl-2H-pyrazol-3-yl)-2-methyl-2-(tetrahydro-pyran-2-ylmethanesulfonyl)-propionamide] |  | agonistic activity |  |
| CC(C)S(=O)(=O)C(C)(C)C(=O)Nc1nc(-c2ccc(Cl)cc2)cs1 [N-[4-(4-Chloro-phenyl)-thiazol-2-yl]-2-methyl-2-(propane-2-sulfonyl)-propionamide] | 0.0449 µM | agonistic activity |  |
| CCS(=O)(=O)C(C)(C)C(=O)Nc1cc(C(C)(C)C)on1 [N-(5-tert-Butyl-isoxazol-3-yl)-2-ethanesulfonyl-2-methyl-propionamide] |  | agonistic activity |  |
| CC(C)(C)S(=O)(=O)C(C)(C)C(=O)Nc1cccc(C(F)(F)F)n1 [2-Methyl-2-(2-methyl-propane-2-sulfonyl)-N-(6-trifluoromethyl-pyridin-2-yl)-propionamide] |  | agonistic activity |  |
| CC(C)(C)c1nnc(NC(=O)C(C)(C)S(=O)(=O)C2CCCC2)s1 [N-(5-tert-Butyl-1,3,4-thiadiazol-2-yl)-2-cyclopentanesulfonyl-2-methyl-propionamide] | 0.0186 µM | agonistic activity |  |
| CCCS(=O)(=O)C(C)(C)C(=O)Nc1nc(C2CCCCC2)cs1 [N-(4-Cyclohexyl-thiazol-2-yl)-2-methyl-2-(propane-1-sulfonyl)-propionamide] | 0.0311 µM | agonistic activity |  |
| CC(C)(C(=O)Nc1cnc2ccccc2c1)S(=O)(=O)CC1CCOCC1 [2-Methyl-N-quinolin-3-yl-2-(tetrahydro-pyran-4-ylmethanesulfonyl)-propionamide] | 0.086 µM | agonistic activity |  |
| CC(C)(C)c1cc(NC(=O)C(C)(C)S(=O)(=O)C2CCCCC2)no1 [N-(5-tert-Butyl-isoxazol-3-yl)-2-cyclohexanesulfonyl-2-methyl-propionamide] | 0.0002 µM | agonistic activity |  |
| CC(C)(C(=O)Nc1ccc(C(F)(F)F)cn1)S(=O)(=O)CC1CCC1 [2-Cyclobutylmethanesulfonyl-2-methyl-N-(5-trifluoromethyl-pyridin-2-yl)-propionamide] |  | agonistic activity |  |
| CC(C)(C)c1cc(NC(=O)C(C)(C)S(=O)(=O)CC2CCCO2)on1 (centres unmarked) [N-(3-tert-Butyl-isoxazol-5-yl)-2-methyl-2-(tetrahydro-furan-2-ylmethanesulfonyl)-propionamide] | 0.0315 µM | agonistic activity |  |
| CCCS(=O)(=O)C(C)(C)C(=O)Nc1nc(-c2ccc(Cl)cc2)cs1 [N-[4-(4-Chloro-phenyl)-thiazol-2-yl]-2-methyl-2-(propane-1-sulfonyl)-propionamide] | 0.013 µM | agonistic activity |  |
| CC(C)c1cc(NC(=O)C(C)(C)S(=O)(=O)CC2CCOCC2)n(C)n1 [N-(5-Isopropyl-2-methyl-2H-pyrazol-3-yl)-2-methyl-2-(tetrahydro-pyran-4-ylmethanesulfonyl)-propionamide] |  | agonistic activity |  |
| CC(C)(C)c1cc(NC(=O)C(C)(C)S(=O)(=O)C2CCCCC2)on1 [N-(3-tert-Butyl-isoxazol-5-yl)-2-cyclohexanesulfonyl-2-methyl-propionamide] |  | agonistic activity |  |

| SMILES | EC50 | agonistic activity | EC50 (CHO cells expressing human CB2R, inhibition of forskolin-stimulated cAMP synthesis, compounds having agonist activity, read-out: CB2 EC50) |
| --- | --- | --- | --- |
| Cc1nc(NC(=O)C(C)(C)S(=O)(=O)C(C)C)sc1C(C)(C)C [N-(5-tert-Butyl-4-methyl-thiazol-2-yl)-2-methyl-2-(propane-2-sulfonyl)-propionamide] | 0.0258 µM | agonistic activity |  |
| CC(C)(C(=O)Nc1cc2ccccc2cn1)S(=O)(=O)CC1CCOCC1 [N-Isoquinolin-3-yl-2-methyl-2-(tetrahydro-pyran-4-ylmethanesulfonyl)-propionamide] | 0.0991 µM | agonistic activity |  |
| Cn1nc(C(C)(C)C)cc1NC(=O)C(C)(C)S(=O)(=O)CC1CCCCC1 [N-(5-tert-Butyl-2-methyl-2H-pyrazol-3-yl)-2-cyclohexylmethanesulfonyl-2-methyl-propionamide] | 0.0238 µM | agonistic activity |  |
| CC(C)S(=O)(=O)C(C)(C)C(=O)Nc1nc(-c2cccnc2)cs1 [2-Methyl-2-(propane-2-sulfonyl)-N-(4-pyridin-3-yl-thiazol-2-yl)-propionamide] |  | agonistic activity |  |
| CC(C)(C)c1cc(NC(=O)C(C)(C)S(=O)(=O)Cc2ccc(F)cc2)on1 [N-(3-tert-Butyl-isoxazol-5-yl)-2-(4-fluoro-phenylmethanesulfonyl)-2-methyl-propionamide] | 0.017 µM | agonistic activity |  |
| CC(C)(C)c1cc(NC(=O)C(C)(C)S(=O)(=O)CC2CCC2)no1 [N-(5-tert-Butyl-isoxazol-3-yl)-2-cyclobutylmethanesulfonyl-2-methyl-propionamide] | 0.0034 µM | agonistic activity |  |
| CC(C)(C)c1cc(NC(=O)C(C)(C)S(=O)(=O)CCCc2ccccc2)no1 [N-(5-tert-Butyl-isoxazol-3-yl)-2-methyl-2-(3-phenyl-propane-1-sulfonyl)-propionamide] |  | agonistic activity |  |
| CC(C)(C)c1cc(NC(=O)C(C)(C)S(=O)(=O)CC2CCCCO2)on1 (centres unmarked) [N-(3-tert-Butyl-isoxazol-5-yl)-2-methyl-2-(tetrahydro-pyran-2-ylmethanesulfonyl)-propionamide] | 0.0002 µM | agonistic activity |  |
| Cc1ccc(NC(=O)C(C)(C)S(=O)(=O)CC2CCOCC2)nc1 [2-Methyl-N-(5-methyl-pyridin-2-yl)-2-(tetrahydro-pyran-4-ylmethanesulfonyl)-propionamide] |  | agonistic activity |  |
| CC(C)(C)c1cc(NC(=O)C(C)(C)S(=O)(=O)Cc2ccc(Cl)cc2)no1 [N-(5-tert-Butyl-isoxazol-3-yl)-2-(4-chloro-phenylmethanesulfonyl)-2-methyl-propionamide] | 0.0166 µM | agonistic activity |  |
| Cn1nc(C(C)(C)C)cc1NC(=O)C(C)(C)S(=O)(=O)C1CCCCCC1 [N-(5-tert-Butyl-2-methyl-2H-pyrazol-3-yl)-2-cycloheptanesulfonyl-2-methyl-propionamide] | 0.0065 µM | agonistic activity |  |
| CC(C)(C(=O)Nc1nc2ccccc2o1)S(=O)(=O)CC1CCOCC1 [N-Benzooxazol-2-yl-2-methyl-2-(tetrahydro-pyran-4-ylmethanesulfonyl)-propionamide] |  | agonistic activity |  |
| CC(C)CCS(=O)(=O)C(C)(C)C(=O)Nc1cc(C(C)(C)C)nn1C [N-(5-tert-Butyl-2-methyl-2H-pyrazol-3-yl)-2-methyl-2-(3-methyl-butane-1-sulfonyl)-propionamide] | 0.0154 µM | agonistic activity |  |
| Cc1nc(NC(=O)C(C)(C)S(=O)(=O)C2CCOCC2)sc1C(C)(C)C [N-(5-tert-Butyl-4-methyl-thiazol-2-yl)-2-methyl-2-(tetrahydro-pyran-4-sulfonyl)-propionamide] | 0.0003 µM | agonistic activity |  |
| CC(C)(C)c1cc(NC(=O)C(C)(C)S(=O)(=O)C2CC2)no1 [N-(5-tert-Butyl-isoxazol-3-yl)-2-cyclopropanesulfonyl-2-methyl-propionamide] |  | agonistic activity |  |
| CC(C)(C(=O)Nc1ccc(C(F)(F)F)cc1)S(=O)(=O)CC1CCOCC1 [2-Methyl-2-(tetrahydro-pyran-4-ylmethanesulfonyl)-N-(4-trifluoromethyl-phenyl)-propionamide] |  | agonistic activity |  |
| CCCS(=O)(=O)C(C)(C)C(=O)Nc1ccc2ccccc2n1 [2-Methyl-2-(propane-1-sulfonyl)-N-quinolin-2-yl-propionamide] |  | agonistic activity |  |
| Cn1nc(C(C)(C)C)cc1NC(=O)C(C)(C)S(=O)(=O)C1CCCC1 [N-(5-tert-Butyl-2-methyl-2H-pyrazol-3-yl)-2-cyclopentanesulfonyl-2-methyl-propionamide] |  | agonistic activity |  |
| CCCS(=O)(=O)C(C)(C)C(=O)Nc1cc(CC(C)(C)C)no1 [N-[3-(2,2-Dimethyl-propyl)-isoxazol-5-yl]-2-methyl-2-(propane-1-sulfonyl)-propionamide] |  | agonistic activity |  |
